Measured values: US20210038607A1, “OXADIAZOLYLTHIOPHENE DERIVATIVES USEFUL AS HISTONE DEACETYLASE INHIBITORS” (Karus Therapeutics Limited, priority 2018, published 2021)

Experiments:
Human HDAC11 = molecular target: T1, Human HDAC11 (Homo sapiens, UniProt Q96DB2); experiment: HDAC11 biochemical assay, class IIa-specific substrate; conditions: read-out: HDAC Isoform IC50 (nM) 11
T1 construct: Human HDAC11 (full length); His (N); host or cells: baculovirus expression system
T1 sequence (Q96DB2 1-347): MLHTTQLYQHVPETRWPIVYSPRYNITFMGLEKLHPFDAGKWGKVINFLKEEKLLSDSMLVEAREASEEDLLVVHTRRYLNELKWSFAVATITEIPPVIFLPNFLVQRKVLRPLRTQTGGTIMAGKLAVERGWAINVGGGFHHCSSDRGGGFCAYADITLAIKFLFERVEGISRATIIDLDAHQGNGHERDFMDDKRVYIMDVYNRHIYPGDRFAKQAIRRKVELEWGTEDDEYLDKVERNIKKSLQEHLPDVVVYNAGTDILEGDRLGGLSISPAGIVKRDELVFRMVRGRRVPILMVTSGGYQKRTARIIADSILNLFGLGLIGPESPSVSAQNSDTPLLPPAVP
Summary of the method: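 Full-length N-His human HDAC11 from baculovirus, 5 ng/μl, incubated with 50 μM Boc-Lys(trifluoroacetyl)-AMC for 30 min at 30 °C. Buffer: 50 mM Tris-HCl pH 8.0, 137 mM NaCl, 2.7 mM KCl, 1 mM MgCl2, 1 mg/mL BSA, 1% DMSO. Developer releases AMC; fluorescence read at 360/460 nm.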

Recombinant human HDAC6 = molecular target: T2, Recombinant human HDAC6 (Homo sapiens, UniProt Q9UBN7); experiment: HDAC6 biochemical assay, AMC-labeled peptide substrate; conditions: HDAC6; read-out: HDAC Isoform IC50 (nM) 6
T2 construct: full length, MW=159 kDa; GST (N); host or cells: Sf9 insect cells (baculovirus)
T2 sequence (Q9UBN7 1-1215): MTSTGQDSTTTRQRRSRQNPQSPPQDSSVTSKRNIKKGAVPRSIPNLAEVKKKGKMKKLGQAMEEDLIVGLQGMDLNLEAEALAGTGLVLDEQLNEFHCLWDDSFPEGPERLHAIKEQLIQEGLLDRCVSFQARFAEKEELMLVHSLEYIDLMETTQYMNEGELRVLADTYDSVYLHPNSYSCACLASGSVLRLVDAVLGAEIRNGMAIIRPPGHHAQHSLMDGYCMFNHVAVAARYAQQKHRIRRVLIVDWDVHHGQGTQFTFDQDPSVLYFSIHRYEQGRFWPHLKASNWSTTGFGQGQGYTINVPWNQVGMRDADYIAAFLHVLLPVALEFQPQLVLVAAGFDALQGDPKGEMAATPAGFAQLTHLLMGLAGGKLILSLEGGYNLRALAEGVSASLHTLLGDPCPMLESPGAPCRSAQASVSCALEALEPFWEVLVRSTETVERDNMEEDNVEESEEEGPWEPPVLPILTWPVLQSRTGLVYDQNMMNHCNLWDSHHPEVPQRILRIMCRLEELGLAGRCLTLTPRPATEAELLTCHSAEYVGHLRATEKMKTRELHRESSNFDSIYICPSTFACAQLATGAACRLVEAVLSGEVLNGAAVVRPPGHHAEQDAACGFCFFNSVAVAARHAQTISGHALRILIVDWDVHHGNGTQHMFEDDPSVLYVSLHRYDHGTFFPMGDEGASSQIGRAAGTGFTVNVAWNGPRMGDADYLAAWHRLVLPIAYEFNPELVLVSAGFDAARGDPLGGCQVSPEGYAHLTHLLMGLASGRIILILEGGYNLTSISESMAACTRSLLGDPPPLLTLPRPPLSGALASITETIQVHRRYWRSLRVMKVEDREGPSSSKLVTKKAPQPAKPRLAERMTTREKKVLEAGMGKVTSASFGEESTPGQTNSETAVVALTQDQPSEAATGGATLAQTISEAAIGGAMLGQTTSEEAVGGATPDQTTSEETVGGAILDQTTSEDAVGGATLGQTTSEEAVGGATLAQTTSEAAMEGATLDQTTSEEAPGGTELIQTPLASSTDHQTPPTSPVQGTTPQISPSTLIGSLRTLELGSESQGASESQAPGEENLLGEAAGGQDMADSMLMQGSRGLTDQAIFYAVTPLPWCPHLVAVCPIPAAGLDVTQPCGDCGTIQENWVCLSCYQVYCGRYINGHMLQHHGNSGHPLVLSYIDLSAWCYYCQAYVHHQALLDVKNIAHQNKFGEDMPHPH
Summary of the method: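 Two-step fluorogenic read-out: enzyme deacetylates 50 μM RHKK(Ac)AMC for 1 h at 30° C in pH 8.0 Tris buffer with BSA and 1% DMSO, then developer cleavage gives signal at Ex 360/Em 460. Enzyme: 0.3 ng/ul recombinant full-length human HDAC6, GST-tagged, Sf9-expressed.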

[1] = molecular target: T3, Complex of human HDAC3 and human NCOR2 (Homo sapiens, UniProt O15379); experiment: HDAC3 biochemical assay, AMC-labeled peptide substrate; conditions: read-out: HDAC Isoform IC50 (nM) 3
T3 construct: full length with C-terminal His tag, MW=49.7 kDa; His (C); host or cells: baculovirus expression system (co-expressed)
T3 sequence (O15379 whole entry, canonical isoform): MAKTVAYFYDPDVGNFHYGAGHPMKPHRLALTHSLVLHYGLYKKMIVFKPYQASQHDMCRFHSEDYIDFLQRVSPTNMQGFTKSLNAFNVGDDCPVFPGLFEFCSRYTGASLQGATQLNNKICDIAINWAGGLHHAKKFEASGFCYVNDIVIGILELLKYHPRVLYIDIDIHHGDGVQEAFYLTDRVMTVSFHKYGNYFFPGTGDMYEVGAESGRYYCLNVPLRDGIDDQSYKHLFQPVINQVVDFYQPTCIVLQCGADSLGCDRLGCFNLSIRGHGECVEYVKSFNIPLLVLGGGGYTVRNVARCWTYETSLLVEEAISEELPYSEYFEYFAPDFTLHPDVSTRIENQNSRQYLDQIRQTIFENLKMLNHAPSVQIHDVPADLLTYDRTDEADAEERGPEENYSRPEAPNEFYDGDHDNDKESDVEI
T3 sequence (Q9Y618 395-489 partner limits assumed): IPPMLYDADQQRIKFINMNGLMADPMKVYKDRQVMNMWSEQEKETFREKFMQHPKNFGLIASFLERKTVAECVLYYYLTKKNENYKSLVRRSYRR
Summary of the method: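 Baculovirus-coexpressed His-tagged full-length HDAC3 with GST-NCOR2 (aa 395-489), 0.1 ng/ul, deacetylates 50 μM RHKK(Ac)AMC in Tris-HCl pH8.0 with BSA and 1% DMSO, 1 h at 30° C. Developer then cleaves deacetylated substrate; fluorescence read at 360/460 Ex/Em.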

Row | Structure (SMILES) | IC50 (Human HDAC11) | IC50 (Recombinant human HDAC6) | IC50 [1]
1 | CC(C)(O)c1cnnc(N(Cc2ccc(-c3noc(C(F)(F)F)n3)s2)c2cnccn2)c1 [Example GS, 2-{6-[(Pyrazin-2-yl)({5-[5-(trifluoromethyl)-1,2,4-oxadiazol-3-yl]thiophen-2-yl}methyl)amino]pyridazin-4-yl}propan-2-ol] | > 10000 nM | ≤ 500 nM | > 10000 nM
2 | O=C(c1cncc(N(Cc2ccc(-c3noc(C(F)(F)F)n3)s2)c2cnccn2)c1)N1CCOCC1 [Example GR, N-[5-(Morpholine-4-carbonyl)pyridin-3-yl]-N-({5-[5-(trifluoromethyl)-1,2,4-oxadiazol-3-yl]thiophen-2-yl}methyl)pyrazin-2-amine] | > 10000 nM | ≤ 10000 nM | > 10000 nM
3 | COc1nccnc1N(Cc1ccc(-c2noc(C(F)(F)F)n2)s1)c1cnccn1 [Example BF, 3-Methoxy-N-(pyrazin-2-yl)-N-({5-[5-(trifluoromethyl)-1,2,4-oxadiazol-3-yl]thiophen-2-yl}methyl)pyrazin-2-amine] | > 10000 nM | ≤ 10000 nM | > 10000 nM
4 | O=C(c1cnnc(N(Cc2ccc(-c3noc(C(F)(F)F)n3)s2)c2cnccn2)c1)N1CCC12COC2 [Example GF, 5-{6-Oxa-1-azaspiro[3.3]heptane-1-carbonyl}-N-(pyrazin-2-yl)-N-({5-[5-(trifluoromethyl)-1,2,4-oxadiazol-3-yl]thiophen-2-yl}methyl)pyridazin-3-amine] | > 10000 nM | ≤ 500 nM | > 10000 nM
5 | Cc1cnnc(N(Cc2ccc(-c3noc(C(F)(F)F)n3)s2)c2cnccn2)c1 [Example GN, 5-Methyl-N-(pyrazin-2-yl)-N-({5-[5-(trifluoromethyl)-1,2,4-oxadiazol-3-yl]thiophen-2-yl}methyl)pyridazin-3-amine] | > 10000 nM | ≤ 500 nM | > 10000 nM
6 | N#Cc1cnnc(N(Cc2ccc(-c3noc(C(F)(F)F)n3)s2)c2cnccn2)c1 [Example EE, 6-[(Pyrazin-2-yl)({5-[5-(trifluoromethyl)-1,2,4-oxadiazol-3-yl]thiophen-2-yl}methyl)amino]pyridazine-4-carbonitrile] | > 10000 nM | ≤ 500 nM | > 10000 nM
7 | O=C(c1cnnc(N(Cc2ccc(-c3noc(C(F)(F)F)n3)s2)c2cnccn2)c1)N1CC(F)(F)C1 [Example FT, 5-(3,3-Difluoroazetidine-1-carbonyl)-N-(pyrazin-2-yl)-N-({5-[5-(trifluoromethyl)-1,2,4-oxadiazol-3-yl]thiophen-2-yl}methyl)pyridazin-3-amine] | > 10000 nM | ≤ 500 nM | > 10000 nM
8 | CNC(=O)c1ccc(N(Cc2ccc(-c3noc(C(F)(F)F)n3)s2)c2cnccn2)nn1 [Example FC, N-Methyl-6-[(pyrazin-2-yl)({5-[5-(trifluoromethyl)-1,2,4-oxadiazol-3-yl]thiophen-2-yl}methyl)amino]pyridazine-3-carboxamide] | > 10000 nM | ≤ 500 nM | ≤ 10000 nM

Now from value to compound:

Row | IC50 (Human HDAC11) | IC50 (Recombinant human HDAC6) | IC50 [1] | Structure (SMILES)
9 | > 10000 nM | ≤ 500 nM | > 10000 nM | O=C(c1ccc(N(Cc2ccc(-c3noc(C(F)(F)F)n3)s2)c2cnccn2)nn1)N1CCCCC1 [Example FG, 6-(Piperidine-1-carbonyl)-N-(pyrazin-2-yl)-N-({5-[5-(trifluoromethyl)-1,2,4-oxadiazol-3-yl]thiophen-2-yl}methyl)pyridazin-3-amine]
10 | > 10000 nM | ≤ 1000 nM | > 10000 nM | O=C(c1nccnc1N(Cc1ccc(-c2noc(C(F)(F)F)n2)s1)c1cnccn1)N1CC(O)(C(F)(F)F)C1 [Example GQ, 1-{3-[(Pyrazin-2-yl)({5-[5-(trifluoromethyl)-1,2,4-oxadiazol-3-yl]thiophen-2-yl}methyl)amino]pyrazine-2-carbonyl}-3-(trifluoromethyl)azetidin-3-ol]
11 | > 10000 nM | ≤ 1000 nM | > 10000 nM | NC(=O)c1nccnc1N(Cc1ccc(-c2noc(C(F)(F)F)n2)s1)c1cnccn1 [Example GO, 3-[(Pyrazin-2-yl)({5-[5-(trifluoromethyl)-1,2,4-oxadiazol-3-yl]thiophen-2-yl}methyl)amino]pyrazine-2-carboxamide]
12 | > 10000 nM | ≤ 500 nM | ≤ 10000 nM | COC1(C(F)(F)F)CN(C(=O)c2cnnc(N(Cc3ccc(-c4noc(C(F)(F)F)n4)s3)c3cnccn3)c2)C1 [Example GL, 5-[3-Methoxy-3-(trifluoromethyl)azetidine-1-carbonyl]-N-(pyrazin-2-yl)-N-({5-[5-(trifluoromethyl)-1,2,4-oxadiazol-3-yl]thiophen-2-yl}methyl)pyridazin-3-amine]
13 | > 10000 nM | ≤ 500 nM | > 10000 nM | COc1cncc(N(Cc2ccc(-c3noc(C(F)(F)F)n3)s2)c2cnccn2)n1 [Example BQ, 6-Methoxy-N-(pyrazin-2-yl)-N-({5-[5-(trifluoromethyl)-1,2,4-oxadiazol-3-yl]thiophen-2-yl}methyl)pyrazin-2-amine]
14 | > 10000 nM | ≤ 10000 nM | ≤ 10000 nM | FC(F)(F)c1nc(-c2ccc(CN(c3cnccn3)c3cnc(N4CCOCC4)cn3)s2)no1 [Example BM, 5-(Morpholin-4-yl)-N-(pyrazin-2-yl)-N-({5-[5-(trifluoromethyl)-1,2,4-oxadiazol-3-yl]thiophen-2-yl}methyl)pyrazin-2-amine]
15 | > 10000 nM | ≤ 500 nM | > 10000 nM | COC1CN(Cc2ccnc(N(Cc3ccc(-c4noc(C(F)(F)F)n4)s3)c3cnccn3)c2)C1 [Example GH, N-{4-[(3-Methoxyazetidin-1-yl)methyl]pyridin-2-yl}-N-({5-[5-(trifluoromethyl)-1,2,4-oxadiazol-3-yl]thiophen-2-yl}methyl)pyrazin-2-amine]
16 | > 10000 nM | ≤ 500 nM | > 10000 nM | OC1(c2cnnc(N(Cc3ccc(-c4noc(C(F)(F)F)n4)s3)c3cnccn3)c2)COC1 [Example GW, 3-{6-[(Pyrazin-2-yl)({5-[5-(trifluoromethyl)-1,2,4-oxadiazol-3-yl]thiophen-2-yl}methyl)amino]pyridazin-4-yl}oxetan-3-ol]
17 | > 10000 nM | ≤ 500 nM | > 10000 nM | COC1CN(C(=O)c2cnnc(N(Cc3ccc(-c4noc(C(F)(F)F)n4)s3)c3cnccn3)c2)C1 [Example DZ, 5-(3-Methoxyazetidine-1-carbonyl)-N-(pyrazin-2-yl)-N-({5-[5-(trifluoromethyl)-1,2,4-oxadiazol-3-yl]thiophen-2-yl}methyl)pyridazin-3-amine]
